Measurements taken from US20260176285A1, “SALT OF DIOXANE QUINOLINE COMPOUND, CRYSTAL FORM THEREOF, PREPARATION METHODS THEREFOR AND USES THEREOF” (Beijing Scitech-MQ Pharmaceuticals Limited, priority 2022, published 2026).

Legend:
[1] = Solid-state stability evaluation (XRPD, HPLC); format: physicochemical; settings: for Purity / Purity/initial purity: listed as p-Toluenesulfonate salt crystal form A-II
Experimental: The following 6 test samples were placed under 25° C./60% RH and 40° C./75% RH conditions for 1 week, and then the physical and chemical stability of the samples was tested by XRPD and HPLC.
At the same time, after the p-toluenesulfonate salt crystal form A-II and crystal form B-III solids were placed at 80° C. for 24 hours, the physical and chemical stability of the samples were tested by XRPD and HPLC.

[2] = tested on: human lung cancer cells EBC-1; experiment: Efficacy in nude mouse tumor-bearing model of human lung cancer cells EBC-1; format: in vivo, Balb/c nude mouse
Source text: In this assay, the free compound of formula (I) of the present application and different salts of the compound prepared in Examples 1, 2 and 5 were orally administered to a nude mouse tumor-bearing model of human lung cancer cells EBC-1 to study their effects on tumor growth.
Preparation of test compounds: an appropriate weight of the test compound (including the free form of the compound of formula (I) and different salts of the compound prepared in Examples 1, 2 and 5) was weighed, completely suspended/dissolved in an appropriate volume of 0.1% sodium carboxymethyl cellulose, stirred and vortexed to give a uniform solution or suspension.
Methods: All assays were authorized by the Animal Welfare Committee. EBC-1 in the logarithmic growth phase was inoculated into immune-deficient nude mice (BALB/c nude, female, 6-8 weeks old, weighing 18±2 g), subcutaneously on the right back, with a cell inoculation amount of 5×10^6/mouse. After the tumor grew to 150-200 mm^3, the animals were randomly divided into groups, 6 mice per group. The dose of each test substance was set at 15 mg/kg and 7.5 mg/kg (both based on the concentration of the effective formula (I) compound), and administered once a day for about 3 weeks. The test compounds were freshly prepared each day before use. During the assay, the tumor diameter was measured twice a week, and the mice were weighed at the same time. The calculation formula of tumor volume (TV) is: TV=1/2×a×b^2, where a and b represent length and width, respectively. The relative tumor volume (RTV) was calculated based on the measurement results, and the calculation formula is: RTV=Vt/V0, wherein V0 is the tumor volume measured at the time of cage grouping and dosing initiation (i.e., d0), and Vt is the tumor volume at each measurement. The evaluation index of antitumor activity is the relative tumor proliferation rate T/C (%), calculated as follows: T/C (%)=(TRTV/CRTV)×100%, TRTV: RTV of the treatment group; CRTV: RTV of the negative control group. T and C represent the average tumor volume at a certain time point in the drug administration group and the control group, respectively.

[3] = Hygroscopicity by dynamic moisture sorption (DVS); format: physicochemical; settings: DVS, listed as p-Toluenesulfonate salt crystal form A-II
Experimental: Dynamic moisture sorption (DVS): The curves were collected on a DVS Intrinsic of SMS (Surface Measurement Systems). At 25° C., the humidity range was 0% RH-95% RH, the step was 10% (the last step was 5%), and the dm/dt was 0.002%/min.
The hygroscopicity of the free compound of formula (I), mucate salt crystal form A-I, p-toluenesulfonate salt crystal forms A-II and B-III, di-p-toluenesulfonate salt crystal form A-IV and phosphate salt crystal form A-V was evaluated by dynamic moisture sorption instrument (DVS). Starting from 0% relative humidity (0% RH), the test collected the mass change percentage of the samples under constant temperature of 25° C. with humidity changes (0% RH-95% RH-0% RH).

[4] = Dynamic solubility in water, SGF, FaSSIF and FeSSIF; format: physicochemical; parameters: S (dynamic solubility): unit not given here; settings: listed as p-Toluenesulfonate salt crystal form A-II; for S (dynamic solubility): 37° C., feed 10 mg/mL
Experimental: Biological solvent Preparation • 1. […] 67.5 μL of concentrated hydrochloric acid (12 M) was added and the mixture was adjusted to a pH value of 1.8 with 1 M hydrochloric acid or 1 M NaOH solution. Purified water was added to make up to volume. • 2. Preparation of Fasted State Simulated Intestinal Fluid (FaSSIF): 0.17 g of anhydrous NaH2PO4, 0.021 g of NaOH, and 0.31 g of NaCl were weighed into a 50-mL volumetric flask. About 48 mL of purified water was added to dissolve the mixture completely, and the solution was adjusted to a pH value of 6.5 with 1 M hydrochloric acid or 1 M NaOH solution. Purified water was added to make up to volume. 0.11 g of SIF powder was added and dissolved completely. • 3. Preparation of Fed State Simulated Intestinal Fluid (FeSSIF): 0.41 mL of glacial acetic acid, 0.20 g of NaOH and 0.59 g of NaCl were weighed into a 50-mL volumetric flask. About 48 mL of purified water was added to dissolve the mixture completely, and the solution was adjusted to a pH value of 5.0 with 1 M hydrochloric acid or 1 M NaOH solution. Purified water was added to make up to volume. 0.56 g of SIF powder was added and dissolved completely.
The dynamic solubility of the free state, the mucate salt crystal form A-I, the p-toluenesulfonate salt crystal form A-II, the di-p-toluenesulfonate salt crystal form A-IV and the phosphate salt crystal form A-V of the compound of formula (I) in water and three biological solvents was evaluated.
The samples at each time point were centrifuged and filtered (0.45 μm PTFE filter head), and the HPLC concentration and pH value of the filtrate were determined.

O=C(Nc1ccc(F)cc1)C1(C(=O)Nc2ccc(Oc3ccnc4cc(OCCCN5CCOCC5)c5c(c34)OCCO5)c(F)c2)CC1 [Example 2, N-(3-fluoro-4-((5-(3-morpholinopropoxy)-2,3-dihydro-[1,4]dioxano[2,3-f]quinolin-10-yl)oxy)phenyl)-N-(4-fluorophenyl)cyclopropane-1,1-dicarboxamide]
Purity ([1]; 25° C./60% RH, 1 week): 99.52 area % | Purity/initial purity ([1]; 25° C./60% RH, 1 week): 100.1% | Purity/initial purity ([1]; 40° C./75% RH, 1 week): 100.0% | Change of Crystal form ([1]; 80° C., 24 hours): no | Purity ([1]; 80° C., 24 hours): 99.42 area % | T/C (relative tumor proliferation rate) ([2]; 7.5 mg/kg oral once a day, day 7): 61.3% | T/C (relative tumor proliferation rate) ([2]; 7.5 mg/kg oral once a day, day 10): 47.4% | T/C (relative tumor proliferation rate) ([2]; 7.5 mg/kg oral once a day, day 14): 40.3% | T/C (relative tumor proliferation rate) ([2]; 7.5 mg/kg oral once a day, day 18): 37.7% | T/C (relative tumor proliferation rate) ([2]; 7.5 mg/kg oral once a day, day 21): 33.1% | T/C (relative tumor proliferation rate) ([2]; 15 mg/kg oral once a day, day 3): 67.9% | T/C (relative tumor proliferation rate) ([2]; 15 mg/kg oral once a day, day 7): 37.3% | T/C (relative tumor proliferation rate) ([2]; 15 mg/kg oral once a day, day 10): 25.4% | T/C (relative tumor proliferation rate) ([2]; 15 mg/kg oral once a day, day 14): 17.5% | T/C (relative tumor proliferation rate) ([2]; 15 mg/kg oral once a day, day 18): 16.0% | T/C (relative tumor proliferation rate) ([2]; 15 mg/kg oral once a day, day 21): 12.09% | Moisture adsorption (25° C./80% RH) ([3]; 25° C./80% RH): 0.52% | Hygroscopicity ([3]; 25° C.): Slightly | S (dynamic solubility) ([4]; FaSSIF, 1 hour): 0.073 | pH of the filtrate ([4]; FaSSIF, 1 hour): 6.1 | S (dynamic solubility) ([4]; FaSSIF, 2 hours): 0.066 | pH of the filtrate ([4]; FaSSIF, 2 hours): 6.1 | S (dynamic solubility) ([4]; FaSSIF, 4 hours): 0.059 | pH of the filtrate ([4]; FaSSIF, 4 hours): 6.1 | S (dynamic solubility) ([4]; FaSSIF, 24 hours): 0.072 | pH of the filtrate ([4]; FaSSIF, 24 hours): 5.1 | S (dynamic solubility) ([4]; FeSSIF, 1 hour): 1.8 | pH of the filtrate ([4]; FeSSIF, 1 hour): 5.0 | S (dynamic solubility) ([4]; FeSSIF, 2 hours): 2.0 | pH of the filtrate ([4]; FeSSIF, 2 hours): 5.0 | S (dynamic solubility) ([4]; FeSSIF, 4 hours): 1.5 | pH of the filtrate ([4]; FeSSIF, 4 hours): 5.0 | S (dynamic solubility) ([4]; FeSSIF, 24 hours): 0.84 | pH of the filtrate ([4]; FeSSIF, 24 hours): 5.0 | S (dynamic solubility) ([4]; H2O, 1 hour): 2.7 | pH of the filtrate ([4]; H2O, 1 hour): 4.8 | S (dynamic solubility) ([4]; H2O, 2 hours): 2.7 | pH of the filtrate ([4]; H2O, 2 hours): 4.9 | S (dynamic solubility) ([4]; H2O, 4 hours): 2.8 | pH of the filtrate ([4]; H2O, 4 hours): 4.7 | S (dynamic solubility) ([4]; H2O, 24 hours): 2.5 | pH of the filtrate ([4]; H2O, 24 hours): 4.2 | S (dynamic solubility) ([4]; SGF, 1 hour): 6.8 | pH of the filtrate ([4]; SGF, 1 hour): 2.3 | S (dynamic solubility) ([4]; SGF, 2 hours): completely dissolved | S (dynamic solubility) ([4]; SGF, 4 hours): completely dissolved | S (dynamic solubility) ([4]; SGF, 24 hours): 6.3 | pH of the filtrate ([4]; SGF, 24 hours): 2.3
